Peptide text beside a SMILES is read from it.
Columns and labels:
HDAC1 = biological target: T1, HDAC1 (Homo sapiens, UniProt Q13547); test: HDAC1 inhibition, full IC50 measurement (Reaction Biology; fluorogenic p53 peptide RHKK(Ac)AMC); assay type: biochemical; settings: t1/t2 replicates
T1 construct: purchased Reaction Biology Corporation (assay run by the CRO)
Procedure: The assay was performed using 50 μM fluorogenic peptide from p53 residues 379-382 [RHKK(Ac)AMC] in a base reaction buffer of 50 mM Tris-HCl at pH 8.0, 137 mM NaCl, 2.7 mM KCl, 1 mM MgCl2, and freshly added 1 mg/ml BSA and 1% DMSO. Peptides were first dissolved in DMSO and then added to the reaction mixture with the enzyme using acoustic technique, enough to reach the desired concentration for that assay point. Peptide concentrations were calculated based on mass of lyophilized peptide and its molecular weight. The substrate was then added and incubated for 1 hour at 30 °C in a sealed container. After the incubation, developer was added to stop the reaction and develop color. Kinetic measurements were then performed for 20 min with Envision with 5 min intervals (Ex/Em = 360/460 nm). The endpoint after plateau was taken for IC50 measurement.
In cases where duplicate measures are used, average data is reported in the main text or Supplementary Tables.

HDAC2 = biological target: T2, HDAC2 (Homo sapiens, UniProt Q92769); test: HDAC2 inhibition, full IC50 measurement (Reaction Biology; fluorogenic p53 peptide RHKK(Ac)AMC); assay type: biochemical
T2 construct: purchased Reaction Biology Corporation (assay run by the CRO)
Summary of the method: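 The reaction was a 1 h, 30 °C incubation of enzyme, acoustically added peptide and 50 μM p53-derived AMC substrate in pH 8.0 Tris buffer with NaCl, KCl, MgCl2, 1 mg/ml BSA and 1% DMSO. Duplicate values were averaged.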

T2 sequence (Q92769 whole entry): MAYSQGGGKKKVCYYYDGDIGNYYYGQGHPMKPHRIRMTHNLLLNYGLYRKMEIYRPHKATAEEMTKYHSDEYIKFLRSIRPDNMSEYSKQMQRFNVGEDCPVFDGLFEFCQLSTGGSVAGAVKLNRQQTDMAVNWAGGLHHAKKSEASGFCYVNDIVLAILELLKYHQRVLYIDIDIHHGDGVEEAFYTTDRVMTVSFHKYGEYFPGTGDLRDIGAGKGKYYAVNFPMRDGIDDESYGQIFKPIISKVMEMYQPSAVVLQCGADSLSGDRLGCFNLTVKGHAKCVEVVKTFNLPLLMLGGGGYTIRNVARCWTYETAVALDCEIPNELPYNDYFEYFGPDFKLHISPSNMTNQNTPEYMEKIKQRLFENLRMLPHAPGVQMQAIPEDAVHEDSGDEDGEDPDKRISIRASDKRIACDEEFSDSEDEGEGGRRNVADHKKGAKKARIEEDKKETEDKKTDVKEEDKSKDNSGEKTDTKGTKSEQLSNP
T1 sequence (Q13547 whole entry): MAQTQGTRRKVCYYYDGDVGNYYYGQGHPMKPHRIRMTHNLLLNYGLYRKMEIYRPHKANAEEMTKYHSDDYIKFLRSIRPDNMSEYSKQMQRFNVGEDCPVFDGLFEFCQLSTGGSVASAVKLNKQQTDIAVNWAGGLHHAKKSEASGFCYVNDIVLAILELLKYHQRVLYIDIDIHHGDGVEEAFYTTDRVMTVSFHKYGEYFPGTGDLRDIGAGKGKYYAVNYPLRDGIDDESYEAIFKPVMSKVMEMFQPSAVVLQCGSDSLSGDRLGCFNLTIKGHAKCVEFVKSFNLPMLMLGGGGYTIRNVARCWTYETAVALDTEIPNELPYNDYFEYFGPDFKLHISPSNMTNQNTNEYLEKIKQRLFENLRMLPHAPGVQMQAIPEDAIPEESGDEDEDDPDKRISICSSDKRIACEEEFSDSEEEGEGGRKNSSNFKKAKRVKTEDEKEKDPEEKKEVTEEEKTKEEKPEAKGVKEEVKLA

For C[C@H](O)[C@H]1NC(=O)[C@H](Cc2c[nH]c3ccccc23)NC(=O)[C@H](CCCCCS)NC(=O)[C@H](CCCCN)NC(=O)[C@@H](CC(=O)O)NC(=O)[C@@H](CCCCN)NC(=O)[C@@H](CO)NC(=O)[C@H](CC(N)=O)NC(=O)[C@H](CC(=O)O)NC1=O [des2.1.0, SHA-Trp-dThr-Asp-Asn-dSer-dLys-dAsp-Lys] (HELM PEPTIDE1{D.N.[dS].[dK].[dD].K.[O=C([C@H](CCCCCS)N[*:1])[*:2]].W.[dT]}$PEPTIDE1,PEPTIDE1,1:R1-9:R2$$$V2.0), the “HDAC1 activity raw data (signal)” value (HDAC1; peptide conc. 1.00E-05 M, listed as des2.1.0_t1) was 2361, the “HDAC1 activity raw data (signal)” value (HDAC1; peptide conc. 1.00E-05 M, listed as des2.1.0_t2) was -1067 and the “HDAC1 activity raw data (signal)” value (HDAC1; peptide conc. 1.11E-06 M, listed as des2.1.0_t1) was 35066. The “HDAC1 activity raw data (signal)” value (HDAC1; peptide conc. 1.11E-06 M, listed as des2.1.0_t2) was 30452, the “HDAC1 activity raw data (signal)” value (HDAC1; peptide conc. 1.23E-07 M, listed as des2.1.0_t1) was 229823 and the “HDAC1 activity raw data (signal)” value (HDAC1; peptide conc. 1.23E-07 M, listed as des2.1.0_t2) was 221730. The “HDAC1 activity raw data (signal)” value (HDAC1; peptide conc. 1.37E-08 M, listed as des2.1.0_t1) was 719453, the “HDAC1 activity raw data (signal)” value (HDAC1; peptide conc. 1.37E-08 M, listed as des2.1.0_t2) was 647364 and the “HDAC1 activity raw data (signal)” value (HDAC1; peptide conc. 1.52E-09 M, listed as des2.1.0_t1) was 1054522. The “HDAC1 activity raw data (signal)” value (HDAC1; peptide conc. 1.52E-09 M, listed as des2.1.0_t2) was 936834, the “HDAC1 activity raw data (signal)” value (HDAC1; peptide conc. 3.33E-06 M, listed as des2.1.0_t1) was 10147 and the “HDAC1 activity raw data (signal)” value (HDAC1; peptide conc. 3.33E-06 M, listed as des2.1.0_t2) was 8024. The “HDAC1 activity raw data (signal)” value (HDAC1; peptide conc. 3.70E-07 M, listed as des2.1.0_t1) was 106445, the “HDAC1 activity raw data (signal)” value (HDAC1; peptide conc. 3.70E-07 M, listed as des2.1.0_t2) was 96156 and the “HDAC1 activity raw data (signal)” value (HDAC1; peptide conc. 4.12E-08 M, listed as des2.1.0_t1) was 447049. For the same compound, the “HDAC1 activity raw data (signal)” value (HDAC1; peptide conc. 4.12E-08 M, listed as des2.1.0_t2) was 424224, the “HDAC1 activity raw data (signal)” value (HDAC1; peptide conc. 4.57E-09 M, listed as des2.1.0_t1) was 905513 and the “HDAC1 activity raw data (signal)” value (HDAC1; peptide conc. 4.57E-09 M, listed as des2.1.0_t2) was 862794. The “HDAC1 activity raw data (signal)” value (HDAC1; peptide conc. 5.08E-10 M, listed as des2.1.0_t1) was 1056262, the “HDAC1 activity raw data (signal)” value (HDAC1; peptide conc. 5.08E-10 M, listed as des2.1.0_t2) was 1080293 and the “HDAC2 activity raw data (signal)” value (HDAC2; Conc. 1.00E-05 M, t1) was 8775. For the same compound, the “HDAC2 activity raw data (signal)” value (HDAC2; Conc. 1.00E-05 M, t2) was 5752, the “HDAC2 activity raw data (signal)” value (HDAC2; Conc. 1.11E-06 M, t1) was 59204 and the “HDAC2 activity raw data (signal)” value (HDAC2; Conc. 1.11E-06 M, t2) was 55653. The “HDAC2 activity raw data (signal)” value (HDAC2; Conc. 1.23E-07 M, t1) was 287500, the “HDAC2 activity raw data (signal)” value (HDAC2; Conc. 1.23E-07 M, t2) was 296559 and the “HDAC2 activity raw data (signal)” value (HDAC2; Conc. 1.37E-08 M, t1) was 771007. For the same compound, the “HDAC2 activity raw data (signal)” value (HDAC2; Conc. 1.37E-08 M, t2) was 731853, the “HDAC2 activity raw data (signal)” value (HDAC2; Conc. 1.52E-09 M, t1) was 900838 and the “HDAC2 activity raw data (signal)” value (HDAC2; Conc. 1.52E-09 M, t2) was 951179. For the same compound, the “HDAC2 activity raw data (signal)” value (HDAC2; Conc. 3.33E-06 M, t1) was 26370, the “HDAC2 activity raw data (signal)” value (HDAC2; Conc. 3.33E-06 M, t2) was 19470 and the “HDAC2 activity raw data (signal)” value (HDAC2; Conc. 3.70E-07 M, t1) was 153888. For the same compound, the “HDAC2 activity raw data (signal)” value (HDAC2; Conc. 3.70E-07 M, t2) was 158440, the “HDAC2 activity raw data (signal)” value (HDAC2; Conc. 4.12E-08 M, t1) was 557731 and the “HDAC2 activity raw data (signal)” value (HDAC2; Conc. 4.12E-08 M, t2) was 531503. The “HDAC2 activity raw data (signal)” value (HDAC2; Conc. 4.57E-09 M, t1) was 870100, the “HDAC2 activity raw data (signal)” value (HDAC2; Conc. 4.57E-09 M, t2) was 861014 and the “HDAC2 activity raw data (signal)” value (HDAC2; Conc. 5.08E-10 M, t1) was 1022928. The “HDAC2 activity raw data (signal)” value (HDAC2; Conc. 5.08E-10 M, t2) was 990162 and the IC50 (HDAC2; figure legends, Supp. Table 1, read-out: HDAC2 IC50) was 49.3 nM.

With CC(C)C[C@H]1NC(=O)[C@H](Cc2c[nH]c3ccccc23)NC(=O)[C@H](CCCCCS)NC(=O)[C@@H](Cc2ccc(O)cc2)NC(=O)[C@@H](C(C)C)NC(=O)[C@H](Cc2c[nH]cn2)NC(=O)CNC(=O)CNC(=O)[C@@H](CO)NC1=O [des2.2.0, SHA-Trp-dLeu-dSer-Gly-Gly-His-dVal-dTyr] (HELM PEPTIDE1{G.G.H.[dV].[dY].[O=C([C@H](CCCCCS)N[*:1])[*:2]].W.[dL].[dS]}$PEPTIDE1,PEPTIDE1,1:R1-9:R2$$$V2.0) the “HDAC1 activity raw data (signal)” value (HDAC1; peptide conc. 1.00E-05 M, listed as des2.2.0_t1) was 393754, the “HDAC1 activity raw data (signal)” value (HDAC1; peptide conc. 1.00E-05 M, listed as des2.2.0_t2) was 398456 and the “HDAC1 activity raw data (signal)” value (HDAC1; peptide conc. 1.11E-06 M, listed as des2.2.0_t1) was 771529. For the same compound, the “HDAC1 activity raw data (signal)” value (HDAC1; peptide conc. 1.11E-06 M, listed as des2.2.0_t2) was 714587, the “HDAC1 activity raw data (signal)” value (HDAC1; peptide conc. 1.23E-07 M, listed as des2.2.0_t1) was 815475 and the “HDAC1 activity raw data (signal)” value (HDAC1; peptide conc. 1.23E-07 M, listed as des2.2.0_t2) was 811874. For the same compound, the “HDAC1 activity raw data (signal)” value (HDAC1; peptide conc. 1.37E-08 M, listed as des2.2.0_t1) was 879707, the “HDAC1 activity raw data (signal)” value (HDAC1; peptide conc. 1.37E-08 M, listed as des2.2.0_t2) was 762845 and the “HDAC1 activity raw data (signal)” value (HDAC1; peptide conc. 1.52E-09 M, listed as des2.2.0_t1) was 835131. For the same compound, the “HDAC1 activity raw data (signal)” value (HDAC1; peptide conc. 1.52E-09 M, listed as des2.2.0_t2) was 788807, the “HDAC1 activity raw data (signal)” value (HDAC1; peptide conc. 3.33E-06 M, listed as des2.2.0_t1) was 631956 and the “HDAC1 activity raw data (signal)” value (HDAC1; peptide conc. 3.33E-06 M, listed as des2.2.0_t2) was 567009. For the same compound, the “HDAC1 activity raw data (signal)” value (HDAC1; peptide conc. 3.70E-07 M, listed as des2.2.0_t1) was 777508, the “HDAC1 activity raw data (signal)” value (HDAC1; peptide conc. 3.70E-07 M, listed as des2.2.0_t2) was 771678 and the “HDAC1 activity raw data (signal)” value (HDAC1; peptide conc. 4.12E-08 M, listed as des2.2.0_t1) was 776525. For the same compound, the “HDAC1 activity raw data (signal)” value (HDAC1; peptide conc. 4.12E-08 M, listed as des2.2.0_t2) was 821518, the “HDAC1 activity raw data (signal)” value (HDAC1; peptide conc. 4.57E-09 M, listed as des2.2.0_t1) was 820973 and the “HDAC1 activity raw data (signal)” value (HDAC1; peptide conc. 4.57E-09 M, listed as des2.2.0_t2) was 805068. The “HDAC1 activity raw data (signal)” value (HDAC1; peptide conc. 5.08E-10 M, listed as des2.2.0_t1) was 825935, the “HDAC1 activity raw data (signal)” value (HDAC1; peptide conc. 5.08E-10 M, listed as des2.2.0_t2) was 859992 and the “HDAC2 activity raw data (signal)” value (HDAC2; Conc. 1.00E-05 M, t1) was 686926. The “HDAC2 activity raw data (signal)” value (HDAC2; Conc. 1.00E-05 M, t2) was 755168, the “HDAC2 activity raw data (signal)” value (HDAC2; Conc. 1.11E-06 M, t1) was 808545 and the “HDAC2 activity raw data (signal)” value (HDAC2; Conc. 1.11E-06 M, t2) was 1100762. The “HDAC2 activity raw data (signal)” value (HDAC2; Conc. 1.23E-07 M, t1) was 837329, the “HDAC2 activity raw data (signal)” value (HDAC2; Conc. 1.23E-07 M, t2) was 1005687 and the “HDAC2 activity raw data (signal)” value (HDAC2; Conc. 1.37E-08 M, t1) was 715440. The “HDAC2 activity raw data (signal)” value (HDAC2; Conc. 1.37E-08 M, t2) was 821926, the “HDAC2 activity raw data (signal)” value (HDAC2; Conc. 1.52E-09 M, t1) was 554743 and the “HDAC2 activity raw data (signal)” value (HDAC2; Conc. 1.52E-09 M, t2) was 656599. The “HDAC2 activity raw data (signal)” value (HDAC2; Conc. 3.33E-06 M, t1) was 690169, the “HDAC2 activity raw data (signal)” value (HDAC2; Conc. 3.33E-06 M, t2) was 996724 and the “HDAC2 activity raw data (signal)” value (HDAC2; Conc. 3.70E-07 M, t1) was 822571. The “HDAC2 activity raw data (signal)” value (HDAC2; Conc. 3.70E-07 M, t2) was 1061380, the “HDAC2 activity raw data (signal)” value (HDAC2; Conc. 4.12E-08 M, t1) was 840443 and the “HDAC2 activity raw data (signal)” value (HDAC2; Conc. 4.12E-08 M, t2) was 955487. The “HDAC2 activity raw data (signal)” value (HDAC2; Conc. 4.57E-09 M, t1) was 679123, the “HDAC2 activity raw data (signal)” value (HDAC2; Conc. 4.57E-09 M, t2) was 728514 and the “HDAC2 activity raw data (signal)” value (HDAC2; Conc. 5.08E-10 M, t1) was 632244. The “HDAC2 activity raw data (signal)” value (HDAC2; Conc. 5.08E-10 M, t2) was 668167.
